Source: ChEMBL document CHEMBL5653615 (J Biol Chem, 2013)

Assays:
[1] = molecular target: T1, NUAK family SNF1-like kinase 1 (Homo sapiens) (UniProt O60285); test: Inhibition of human ARK5 at 18.6 nM by HotSpot assay relative to control
T1 sequence (whole entry): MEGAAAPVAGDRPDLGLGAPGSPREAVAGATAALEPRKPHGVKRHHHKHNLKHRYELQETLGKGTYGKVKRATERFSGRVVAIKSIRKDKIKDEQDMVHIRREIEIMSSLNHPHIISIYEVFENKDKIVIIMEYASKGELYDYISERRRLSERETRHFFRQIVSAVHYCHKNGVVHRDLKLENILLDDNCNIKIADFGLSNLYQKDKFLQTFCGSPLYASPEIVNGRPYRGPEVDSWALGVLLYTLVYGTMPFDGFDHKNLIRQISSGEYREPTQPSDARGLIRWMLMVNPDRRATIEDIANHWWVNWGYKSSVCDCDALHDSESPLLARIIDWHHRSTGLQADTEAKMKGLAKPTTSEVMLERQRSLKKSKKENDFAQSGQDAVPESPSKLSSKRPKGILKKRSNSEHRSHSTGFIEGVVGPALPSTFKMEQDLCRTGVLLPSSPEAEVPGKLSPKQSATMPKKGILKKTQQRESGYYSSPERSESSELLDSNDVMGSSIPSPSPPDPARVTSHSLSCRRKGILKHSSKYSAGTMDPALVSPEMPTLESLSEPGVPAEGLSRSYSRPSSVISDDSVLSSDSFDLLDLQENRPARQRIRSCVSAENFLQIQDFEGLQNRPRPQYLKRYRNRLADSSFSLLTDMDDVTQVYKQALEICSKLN

[2] = molecular target: T2, Interleukin-1 receptor-associated kinase 4 (Homo sapiens) (UniProt Q9NWZ3); test: Inhibition of human IRAK4 at 18.6 nM by HotSpot assay relative to control
T2 sequence (whole entry): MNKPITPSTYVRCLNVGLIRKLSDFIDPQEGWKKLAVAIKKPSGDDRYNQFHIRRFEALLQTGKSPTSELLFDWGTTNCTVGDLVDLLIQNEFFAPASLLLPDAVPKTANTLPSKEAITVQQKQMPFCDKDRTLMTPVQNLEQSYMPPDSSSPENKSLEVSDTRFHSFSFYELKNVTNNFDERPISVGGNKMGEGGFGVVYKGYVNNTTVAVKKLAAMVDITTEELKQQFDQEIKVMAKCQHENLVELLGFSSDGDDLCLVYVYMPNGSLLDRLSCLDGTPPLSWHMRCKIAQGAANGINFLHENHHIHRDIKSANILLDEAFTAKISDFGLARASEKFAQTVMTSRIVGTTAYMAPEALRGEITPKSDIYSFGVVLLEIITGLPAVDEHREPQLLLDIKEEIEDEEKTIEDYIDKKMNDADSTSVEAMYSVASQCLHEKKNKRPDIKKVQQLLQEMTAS

[3] = molecular target: Serine/threonine-protein kinase PAK 2 (Homo sapiens) (UniProt Q13177); test: Inhibition of human PAK2 at 18.6 nM by HotSpot assay relative to control
Serine/threonine-protein kinase PAK 2 (Homo sapiens), sequence (Q13177 whole entry): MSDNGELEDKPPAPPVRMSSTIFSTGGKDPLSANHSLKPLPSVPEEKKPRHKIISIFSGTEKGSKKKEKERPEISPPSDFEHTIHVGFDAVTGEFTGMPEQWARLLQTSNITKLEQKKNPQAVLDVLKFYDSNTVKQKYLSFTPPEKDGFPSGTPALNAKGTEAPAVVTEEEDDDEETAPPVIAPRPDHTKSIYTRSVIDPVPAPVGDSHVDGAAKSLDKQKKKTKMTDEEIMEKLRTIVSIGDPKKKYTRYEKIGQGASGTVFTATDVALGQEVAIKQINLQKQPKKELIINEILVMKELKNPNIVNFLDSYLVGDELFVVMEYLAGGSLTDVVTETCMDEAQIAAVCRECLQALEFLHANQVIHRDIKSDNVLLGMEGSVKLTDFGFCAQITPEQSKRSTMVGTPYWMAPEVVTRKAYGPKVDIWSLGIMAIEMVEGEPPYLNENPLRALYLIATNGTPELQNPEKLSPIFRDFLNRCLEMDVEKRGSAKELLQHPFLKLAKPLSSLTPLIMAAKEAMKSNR

[4] = molecular target: T3, Protein kinase C iota type (Homo sapiens) (UniProt P41743); test: Inhibition of human PKCiota at 18.6 nM by HotSpot assay relative to control
T3 sequence (whole entry): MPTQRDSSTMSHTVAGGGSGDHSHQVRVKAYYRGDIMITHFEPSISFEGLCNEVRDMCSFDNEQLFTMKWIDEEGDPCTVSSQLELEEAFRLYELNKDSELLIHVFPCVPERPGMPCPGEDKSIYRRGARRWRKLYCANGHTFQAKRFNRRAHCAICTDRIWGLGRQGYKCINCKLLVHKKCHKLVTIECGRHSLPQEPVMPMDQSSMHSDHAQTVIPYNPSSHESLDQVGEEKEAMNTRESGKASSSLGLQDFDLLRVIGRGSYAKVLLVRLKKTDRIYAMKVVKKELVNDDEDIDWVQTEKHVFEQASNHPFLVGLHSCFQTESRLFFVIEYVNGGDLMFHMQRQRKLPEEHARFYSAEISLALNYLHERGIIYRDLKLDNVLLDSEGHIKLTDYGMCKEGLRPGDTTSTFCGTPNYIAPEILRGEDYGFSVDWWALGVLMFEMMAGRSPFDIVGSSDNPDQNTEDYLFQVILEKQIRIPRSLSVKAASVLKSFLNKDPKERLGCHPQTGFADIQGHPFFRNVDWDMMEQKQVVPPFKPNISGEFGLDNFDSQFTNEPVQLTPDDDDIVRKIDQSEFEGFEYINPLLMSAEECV

[5] = molecular target: Aurora kinase B (Homo sapiens) (UniProt Q96GD4); test: Inhibition of human Aurora B at 1.82 nM by HotSpot assay relative to control
Aurora kinase B (Homo sapiens), sequence (Q96GD4 whole entry): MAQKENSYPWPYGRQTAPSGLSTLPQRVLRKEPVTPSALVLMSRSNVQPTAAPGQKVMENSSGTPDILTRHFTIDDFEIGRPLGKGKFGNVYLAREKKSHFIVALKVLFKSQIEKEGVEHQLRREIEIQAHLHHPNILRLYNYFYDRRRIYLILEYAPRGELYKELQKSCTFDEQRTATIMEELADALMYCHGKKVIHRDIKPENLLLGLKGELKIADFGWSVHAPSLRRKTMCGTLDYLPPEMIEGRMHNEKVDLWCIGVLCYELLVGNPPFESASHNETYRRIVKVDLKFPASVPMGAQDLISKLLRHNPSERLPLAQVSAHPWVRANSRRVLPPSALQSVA

[6] = molecular target: Mitogen-activated protein kinase 1 (Homo sapiens) (UniProt P28482); test: Inhibition of human ERK2 at 1.82 nM by HotSpot assay relative to control
Mitogen-activated protein kinase 1 (Homo sapiens), sequence (P28482 whole entry): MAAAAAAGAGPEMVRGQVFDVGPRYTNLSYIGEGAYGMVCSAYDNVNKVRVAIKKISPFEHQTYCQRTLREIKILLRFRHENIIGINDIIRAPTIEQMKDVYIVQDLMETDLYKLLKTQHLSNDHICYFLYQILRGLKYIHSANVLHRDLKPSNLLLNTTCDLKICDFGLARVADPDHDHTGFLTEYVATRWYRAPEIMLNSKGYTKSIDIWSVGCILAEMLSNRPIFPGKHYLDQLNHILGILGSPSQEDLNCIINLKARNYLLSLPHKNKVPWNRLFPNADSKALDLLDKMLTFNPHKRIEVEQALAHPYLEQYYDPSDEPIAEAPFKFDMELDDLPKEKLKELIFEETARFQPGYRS

[7] = molecular target: T4, NUAK family SNF1-like kinase 2 (Homo sapiens) (UniProt Q9H093); test: Inhibition of human NUAK2 at 1.82 nM by HotSpot assay relative to control
T4 sequence (whole entry): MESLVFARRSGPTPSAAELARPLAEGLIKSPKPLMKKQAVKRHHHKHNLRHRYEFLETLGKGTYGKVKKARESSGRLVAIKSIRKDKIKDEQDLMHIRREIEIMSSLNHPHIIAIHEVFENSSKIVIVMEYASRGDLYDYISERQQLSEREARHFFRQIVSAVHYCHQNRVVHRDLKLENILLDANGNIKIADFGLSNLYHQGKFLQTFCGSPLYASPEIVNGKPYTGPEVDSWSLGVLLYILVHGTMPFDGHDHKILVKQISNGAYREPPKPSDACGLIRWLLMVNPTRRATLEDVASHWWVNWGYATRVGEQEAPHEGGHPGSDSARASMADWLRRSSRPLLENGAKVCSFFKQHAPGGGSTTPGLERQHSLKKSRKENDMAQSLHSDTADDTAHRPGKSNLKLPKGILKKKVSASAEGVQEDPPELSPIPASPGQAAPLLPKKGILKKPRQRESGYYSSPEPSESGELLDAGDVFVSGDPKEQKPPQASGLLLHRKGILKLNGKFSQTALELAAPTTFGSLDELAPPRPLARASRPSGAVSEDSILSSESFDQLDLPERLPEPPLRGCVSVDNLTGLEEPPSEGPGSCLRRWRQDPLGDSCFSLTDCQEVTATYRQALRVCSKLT

Homo sapiens = species on record: Homo sapiens; test: Inhibition of human TAO1 at 1.82 nM by HotSpot assay relative to control

| SMILES | inhibition [1] [%] | inhibition [2] [%] | inhibition [3] [%] | inhibition [4] [%] | inhibition [5] [%] | inhibition [6] [%] | inhibition [7] [%] | inhibition (Homo sapiens) [%] |
| --- | --- | --- | --- | --- | --- | --- | --- | --- |
| C[C@]1(O)C[C@@H](c2nc(-c3ccc4ccc(-c5ccccc5)nc4c3)c3c(N)nccn32)C1 | -1.57 | -2.53 | -7.87 | -2.19 | – | – | – | – |
| C[C@@]1(C(=O)Nc2ccc(F)nc2)CCCN1c1nc(Nc2cc(C3CC3)n[nH]2)c2cccn2n1 | – | – | – | – | -0.68 | -3.61 | 8.18 | 1.46 |
